Measurements taken from patent US20060089387A1, “Stabilized pharmaceutical composition comprising antidiabetic agent” (priority 2004, published 2006).

Assays:
[1] = pKa of free rosiglitazone and free pioglitazone; format: physicochemical
[2] = Solubility (complete dissolution) in solvents; format: physicochemical; settings: in words

Row | pKa1 [1] | pKa2 [1] | water solubility [2] | Structure (SMILES)
1 | 6.8 | 6.1 | poorly water-soluble | CN(CCOc1ccc(CC2SC(=O)NC2=O)cc1)c1ccccn1 (racemic) [free rosiglitazone, (±)5-[4-[2-(N-methyl-N-(2-pyridyl)amino)ethoxy]benzyl]thiazolidine-2,4-dione]
2 | 6.5 | 6.1 | poorly water-soluble | CCc1ccc(CCOc2ccc(CC3SC(=O)NC3=O)cc2)nc1 (racemic) [free pioglitazone, [(±)5-[[2-(5-ethyl-2-pyridinyl)ethoxyl]phenyl]methyl]-thiazolidine-2,4-dione]
